Data set [1] has as its system Leishmania donovani. As to the kind of experiment: Antileishmanial activity against Leishmania donovani MHOM/IN/80/Dd8 amastigotes infected in mouse J774A1 cells at 25 ug/mL after 72 hrs by MTT assay relative to control. The data set is classed as functional, organism-based. The settings on record: J774.A1. (In general: Formazan colour is commonly taken as a measure of viable cells.)

Data set [2] has as its system Leishmania donovani. As to the kind of experiment: Antileishmanial activity against Leishmania donovani MHOM/IN/80/Dd8 amastigotes infected in mouse J774A1 cells at 100 ug/mL after 72 hrs by MTT assay relative to control. The data set is classed as functional, organism-based. The settings on record: J774.A1.
Data set [3] concerns Leishmania donovani. As to the kind of experiment: Antileishmanial activity against Leishmania donovani MHOM/IN/80/Dd8 promastigotes infected in mouse J774A1 cells at 2000 ug/mL after 96 hrs by MTT assay relative to control. The class given is functional, organism-based. The conditions noted are these: J774.A1.
In data set [4] the test system is Leishmania donovani. As to the kind of experiment: Antileishmanial activity against Leishmania donovani MHOM/IN/80/Dd8 promastigotes infected in mouse J774A1 cells at 1000 ug/mL after 96 hrs by MTT assay relative to control. The conditions noted are these: J774.A1. The class given is functional, organism-based.
Data set [5] relates to Leishmania donovani. As to the kind of experiment: Antileishmanial activity against Leishmania donovani MHOM/IN/80/Dd8 promastigotes infected in mouse J774A1 cells at 500 ug/mL after 96 hrs by MTT assay relative to control. The class given is functional, organism-based. The conditions noted are these: J774.A1.
In data set [6] the test system is Leishmania donovani. As to the kind of experiment: Antileishmanial activity against Leishmania donovani MHOM/IN/80/Dd8 amastigotes infected in mouse J774A1 cells at 50 ug/mL after 72 hrs by MTT assay relative to control. The settings on record: J774.A1. The data set is classed as functional, organism-based.
For data set [7], the system named is Leishmania donovani. As to the kind of experiment: Antileishmanial activity against Leishmania donovani MHOM/IN/80/Dd8 amastigotes infected in mouse J774A1 cells at 200 ug/mL after 72 hrs by MTT assay relative to control. The data set is classed as functional, organism-based. The settings on record: J774.A1.
In data set [8] the test system is Leishmania donovani. As to the kind of experiment: Antileishmanial activity against Leishmania donovani MHOM/IN/80/Dd8 amastigotes infected in mouse J774A1 cells at 10 ug/mL after 72 hrs by MTT assay relative to control. The settings on record: for Activity: J774.A1; for inhibition at 10 µg/mL: MHOM/IN/80/Dd8, J774.A1, 72 h. The class given is functional.
Data set [9] concerns Leishmania donovani. As to the kind of experiment: Antileishmanial activity against Leishmania donovani MHOM/IN/80/Dd8 promastigotes infected in mouse J774A1 cells at 10 ug/mL after 96 hrs by MTT assay relative to control. The class given is functional. The conditions noted are these: for inhibition at 10 µg/mL: MHOM/IN/80/Dd8, J774.A1, 96 h; for Activity: J774.A1.
The nature of data set [10]: Cytotoxicity against Sprague-Dawley rat calvarial osteoblast cells at 10 pM to 1 uM after 48 hrs by MTT assay. The class given is cell-based.
Data set [11] concerns Leishmania donovani. As to the kind of experiment: Antileishmanial activity against Leishmania donovani MHOM/IN/80/Dd8 promastigotes infected in mouse J774A1 cells at 6.25 ug/mL after 96 hrs by MTT assay relative to control. The data set is classed as functional. The settings on record: MHOM/IN/80/Dd8, J774.A1, 96 h.
The subject of data set [12] is Leishmania donovani. As to the kind of experiment: Antileishmanial activity against Leishmania donovani MHOM/IN/80/Dd8 amastigotes infected in mouse J774A1 cells after 72 hrs by MTT assay. The class given is functional, organism-based. The conditions noted are these: MHOM/IN/80/Dd8, J774.A1, 72 h.
The test system of data set [13] is Bone marrow cell. As to the kind of experiment: Antibone resorptive activity in mouse bone marrow cells assessed as inhibition of osteoclastogenesis at 100 nM after 7 days by TRAP assay in presence of MCSF and RANKL. The data set is classed as functional, cell-based.
For data set [14], the system named is Leishmania donovani. As to the kind of experiment: Antileishmanial activity against Leishmania donovani MHOM/IN/80/Dd8 amastigotes infected in mouse J774A1 cells at 2 ug/mL after 72 hrs by MTT assay relative to control. The data set is classed as functional. The conditions noted are these: MHOM/IN/80/Dd8, J774.A1, 72 h.
Data set [15] has as its system Leishmania donovani. As to the kind of experiment: Antileishmanial activity against Leishmania donovani MHOM/IN/80/Dd8 amastigotes infected in mouse J774A1 cells at 5 ug/mL after 72 hrs by MTT assay relative to control. The class given is functional. The conditions noted are these: MHOM/IN/80/Dd8, J774.A1, 72 h.
Data set [16] deals with Leishmania donovani. As to the kind of experiment: Antileishmanial activity against Leishmania donovani MHOM/IN/80/Dd8 amastigotes infected in mouse J774A1 cells at 1 ug/mL after 72 hrs by MTT assay relative to control. The data set is classed as functional. The conditions noted are these: MHOM/IN/80/Dd8, J774.A1, 72 h.
The nature of data set [17]: Cytotoxicity against mouse J774A1 cells after 72 hrs by MTT assay. The class given is cell-based, J774.A1.
Data set [18] deals with Osteoclast. As to the kind of experiment: Induction of apoptosis in mouse osteoclast cells assessed as nucleosomal DNA fragmentation at 100 nM after 48 hrs by Hoechst 33258 staining. The data set is classed as functional, cell-based.
The test system of data set [19] is Mus musculus. As to the kind of experiment: Induction of osteoclastogenesis in BALB/c ovariectomized mouse bone marrow cells at 10 mg/kg by TRAP assay relative to sham group in presence of MCSF and RANKL. The class given is functional.
Data set [20] has as its system Mus musculus. As to the kind of experiment: Antibone resorptive activity in BALB/c ovariectomized mouse bone marrow cells assessed as inhibition of osteoclastogenesis at 10 mg/kg by TRAP assay relative to control in presence of MCSF and RANKL. The class given is functional. Further details: scale not given: the % may be the effect or the level left.
In data set [21] the test system is Bone marrow cell. As to the kind of experiment: Antibone resorptive activity in mouse bone marrow cells assessed as inhibition of osteoclastogenesis at 100 pM after 7 days by TRAP assay in presence of MCSF and RANKL. The class given is functional, cell-based.
Data set [22] has as its system Osteoclast. As to the kind of experiment: Induction of apoptosis in mouse osteoclast cells assessed as nucleosomal DNA fragmentation at 10 pM after 48 hrs by Hoechst 33258 staining. The class given is functional, cell-based.
Data set [23] concerns Bone marrow cell. As to the kind of experiment: Antibone resorptive activity in mouse bone marrow cells assessed as inhibition of osteoclastogenesis at 10 pM after 7 days by TRAP assay in presence of MCSF and RANKL. The class given is functional, cell-based.

A word on the inhibition: it is how much of the control response was suppressed. In general, IC50 refers to the midpoint of a concentration-inhibition curve. One may read the CC50 as the concentration giving 50% cytotoxicity.

Converted amounts (≈) assume the structure as drawn. The source made the active and inactive calls. The rule behind the calls is not given here.

Turning to Sodium Stibogluconate, the inhibition in the data set on Leishmania donovani [1] came to 11.4%; in the data set on Leishmania donovani [2] it was 78.8%; in the data set with Leishmania donovani [3], 72.8%; in the data set with Leishmania donovani [4], 55.5%; in the data set with Leishmania donovani [5], 29.1%; in the data set with Leishmania donovani [6], 48.4%. This molecule also returned an inhibition with Leishmania donovani [7] of 99.8%.
Regarding `CCOP(=O)(OCC)C(O)(CCCCCn1c2c(c3ccccc31)CCCc1ccccc1-2)P(=O)(OCC)OCC`, the Activity result was “Toxic” in the data set on Leishmania donovani [8] and “Not Active” in data set [10]. The inhibition at 10 µg/mL in the data set on Leishmania donovani [9] was 85.7%. Further, in the data set with Leishmania donovani [11], 6.25 µg/mL produced 26.1% inhibition.
In the data set on Leishmania donovani [8], `O=P([O-])([O-])C(O)(Cn1c2c(c3ccccc31)CCSc1ccccc1-2)P(=O)([O-])[O-].[Na+].[Na+].[Na+].[Na+]` showed an inhibition at 10 µg/mL of 33.5%. Further, the outcome with Leishmania donovani [9] was inactive. Besides, in [10], the result was Active.
As for `CCOP(=O)(OCC)C(O)(CCCCn1c2c(c3ccccc31)CCCc1ccccc1-2)P(=O)(OCC)OCC`, in the data set on Leishmania donovani [12], the half-inhibitory concentration (IC50) was found to be 24 µg/mL (≈ 40.6 µM). In addition, the result in the data set on Bone marrow cell [13] was Active. Moreover, in the data set on Leishmania donovani [9], the inhibition at 10 µg/mL is 99.8%. In addition, the Activity result in data set [10] is “Not Active”. The molecule further gave an inhibition at 2 µg/mL in the data set with Leishmania donovani [14] of 80.6%. The molecule further had an inhibition at 5 µg/mL in the data set on Leishmania donovani [15] of 78.3%. The molecule also came in with an inhibition at 6.25 µg/mL in the data set on Leishmania donovani [11] of 86.4%. The same molecule displayed an inhibition at 1 µg/mL in the data set with Leishmania donovani [16] of 3%. This molecule showed a CC50 at 72 h in data set [17] of 5.81 µg/mL (≈ 9.82 µM).
Regarding `CCOP(=O)(OCC)C(O)(CCCCCn1c2c(c3ccccc31)CCSc1ccccc1-2)P(=O)(OCC)OCC`, the outcome in the data set with Osteoclast [18] and in the data set with Bone marrow cell [21] was Active. Further, it took 1.69 µg/mL (≈ 2.71 µM) to reach half-maximal inhibition in the data set on Leishmania donovani [12] (IC50). Also, the inhibition at 10 µg/mL was 78.2% in the data set with Leishmania donovani [8] and 100% with Leishmania donovani [9]. Besides, in the data set on Bone marrow cell [13], the outcome was inactive. Besides, the Activity with Mus musculus [19] was 40%; in the data set with Mus musculus [20] it was 9%; in data set [10] it was “Not Active”. The molecule also returned an inhibition at 2 µg/mL in the data set with Leishmania donovani [14] of 16.8%. Further, in the data set with Leishmania donovani [15], 5 µg/mL produced 58.8% inhibition. Besides, in the data set with Leishmania donovani [11], at 6.25 µg/mL the inhibition was 99.6%. The same molecule returned an inhibition at 1 µg/mL with Leishmania donovani [16] of 4.2%. The molecule also returned a 50% cytotoxic concentration (CC50) at 72 h in data set [17] of 3.66 µg/mL (≈ 5.87 µM).
Consider `CCOP(=O)(OCC)C(O)(CCCCn1c2c(c3ccccc31)CCSc1ccccc1-2)P(=O)(OCC)OCC`, for which the inhibition at 10 µg/mL in the data set on Leishmania donovani [8] amounted to 9.45%; in the data set with Leishmania donovani [9], 27.8%. Besides, the outcome in the data set on Osteoclast [22], with Bone marrow cell [21] and in the data set on Bone marrow cell [23] was Active. In addition, in the data set with Bone marrow cell [13], the outcome was inactive. In addition, the Activity in the data set on Mus musculus [19] was 40%; in the data set on Mus musculus [20], 8.4%; in data set [10], “Not Active”.
In the case of `O=P([O-])([O-])C(O)(CCCn1c2c(c3ccccc31)CCSc1ccccc1-2)P(=O)([O-])[O-].[Na+].[Na+].[Na+].[Na+]`, the inhibition at 10 µg/mL in the data set on Leishmania donovani [8] is 6.3%. Moreover, the outcome in the data set with Leishmania donovani [9] was inactive. Besides, the result in [10] was Active.
Regarding `CCOP(=O)(OCC)C(O)(CCCCn1c2c(c3ccccc31)CCOc1ccccc1-2)P(=O)(OCC)OCC`, the result in the data set with Leishmania donovani [8] was inactive. The molecule further registered an inhibition at 10 µg/mL with Leishmania donovani [9] of 39.4%. Further, the outcome in [10] was Active.
`CCOP(=O)(OCC)C(O)(CCCCCCn1c2c(c3ccccc31)CCSc1ccccc1-2)P(=O)(OCC)OCC` displayed an IC50 with Leishmania donovani [12] of 2.56 µg/mL (≈ 4.01 µM). Besides, the inhibition at 10 µg/mL in the data set with Leishmania donovani [8] amounted to 85%; in the data set with Leishmania donovani [9], 100%. In addition, the result in the data set with Bone marrow cell [13] was Active. Also, the Activity entry in [10] is reported as “Not Active”. For the same molecule, testing at 2 µg/mL with Leishmania donovani [14] gave an inhibition of 40%. This molecule also yielded an inhibition at 5 µg/mL in the data set on Leishmania donovani [15] of 67.2%. The molecule also displayed an inhibition at 6.25 µg/mL with Leishmania donovani [11] of 90.1%. This molecule also showed an inhibition at 1 µg/mL in the data set on Leishmania donovani [16] of 25.5%. In data set [17], this molecule displayed a CC50 at 72 h of 4.5 µg/mL (≈ 7.06 µM).
For `NCCCC(O)(P(=O)(O)O)P(=O)(O)O`, the outcome in the data set with Bone marrow cell [13] was Active.
`O=P([O-])([O-])C(O)(CCn1c2c(c3ccccc31)CCSc1ccccc1-2)P(=O)([O-])[O-].[Na+].[Na+].[Na+].[Na+]`: the outcome with Leishmania donovani [8] was inactive. This molecule came in with an inhibition at 10 µg/mL with Leishmania donovani [9] of 23.5%. In addition, the outcome in data set [10] was Active.
In the case of `O=P([O-])([O-])C(O)(CCCCn1c2c(c3ccccc31)CCSc1ccccc1-2)P(=O)([O-])[O-].[Na+].[Na+].[Na+].[Na+]`, the inhibition at 10 µg/mL with Leishmania donovani [8] amounted to 55.3%. Further, the outcome with Bone marrow cell [13] was Active. Further, in the data set with Leishmania donovani [9], the result was inactive. In addition, the Activity result in data set [10] is reported as “Not Active”.

The values are drawn from ChEMBL document CHEMBL1144176, “Synthesis and biological evaluation of indolyl bisphosphonates as anti-bone resorptive and anti-leishmanial agents” (Bioorg Med Chem, 2008).
